Test results: patent US10028999B2, “PAR-1 based therapeutic conjugates and uses thereof” (TEL HASHOMER MEDICAL RESEARCH INFRASTRUCTURE AND SERVICES …, priority 2014, dated 2018)
Peptide text beside a SMILES is read from it. * marks the point of attachment. Tos = Cc1ccc(S(=O)(=O)*)cc1; CH2Cl = ClC*

Tests used:
[1] = tested on: CNS-1 glioma cells; assay: Proliferation (XTT) of CNS-1 glioma cells; assay type: cell-based, rat; settings: CNS-1 cells
Procedure: Several peptide moieties (Table 1) according to the present invention were synthesized. Proliferation was measured, by means of XTT, in C6 and CNS-1 glioma cell-lines (FIGS. 8A and 8B, respectively). In C6 cells, proliferation was measured before (black bar) and after cells were treated with the PAR-1 antagonist SCH79797 at various doses ranging from 10 nM to 10 μM (grey bars; FIG. 8A).
In another set of experiments, CNS-1 glioma cell-line was treated with increased doses of TLCK (125 nM to 14 mM), for 48 hours (FIG. 9; grey bars). Proliferation was measured by means of XTT in comparison to non-treated cells (control; black bar).
Initially, CNS-1 glioma cells were treated with increased concentrations of two peptide conjugates: a short conjugate of the formula tosyl-DPR-CK (comprising 3 amino acids, 3AA) or a long conjugate of the formula tosyl-NATLDPR-CK (comprising 7 amino acids, 7AA; SEQ ID NO: 4) in concentrations of 100 pM, 1 nM and 10 nM, for 48 hours (FIG. 10). FIG. 10 provides the results of an XTT assay used for assessing cell proliferation.
The effect of the peptide conjugate alone, or in combination with PAR-1 antagonist, SCH79797, on cell proliferation was determined in comparison to untreated cells or cells treated with PAR-1 antagonist (FIG. 13).

[2] = tested on: blood coagulation (prothrombin time); assay: Prothrombin time test; assay type: biochemical; settings: for PT: without conjugate 11.5; for Potency score in PT test: most potent (1) to least potent (5)
[3] = tested on: blood coagulation (aPTT); assay: Activated partial thromboplastin time test; assay type: biochemical; settings: for aPTT: without conjugate 30.5; for Potency score in aPTT test: most potent (1) to least potent (5)
[4] = tested on: thrombin; assay: Thrombin time test; assay type: biochemical; settings: for TT: without conjugate 13.4; for Potency score in TT test: most potent (1) to least potent (5)
[5] = tested on: Factor Xa; assay: Factor Xa activity test; assay type: biochemical; settings: 100 μM; for Potency score in Factor Xa activity test: most potent (1) to least potent (5); for Fxa: without conjugate 0.11
[6] = biological target: Protein C (Homo sapiens, UniProt P04070); assay: Protein C activity test; assay type: biochemical; settings: for aPC: without conjugate 109; for Potency score in Protein C activity test: most potent (1) to least potent (5)
Protein C, sequence (P04070 212-461 limits assumed): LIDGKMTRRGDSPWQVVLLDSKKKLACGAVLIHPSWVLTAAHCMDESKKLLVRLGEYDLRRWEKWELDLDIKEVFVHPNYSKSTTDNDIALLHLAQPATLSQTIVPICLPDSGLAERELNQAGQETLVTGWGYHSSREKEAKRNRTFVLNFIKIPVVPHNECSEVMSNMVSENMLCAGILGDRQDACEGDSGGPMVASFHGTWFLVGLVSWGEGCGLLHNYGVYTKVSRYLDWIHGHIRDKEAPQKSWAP
Protein C, sequence (P04070 43-197 partner limits assumed): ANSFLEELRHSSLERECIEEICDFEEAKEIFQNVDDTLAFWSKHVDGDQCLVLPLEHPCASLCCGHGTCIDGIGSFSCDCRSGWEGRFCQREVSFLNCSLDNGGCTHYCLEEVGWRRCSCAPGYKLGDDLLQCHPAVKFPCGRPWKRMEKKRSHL

[7] = tested on: rat Glioblastoma multiforme (GBM) tumor; assay: Tumor size, edema and survival in GBM animal model; assay type: in vivo; settings: for change in edema surrounding the tumor: 1 μl/h for 7 days; for change in tumor size: 1 μl/h for 7 days intratumoral, MRI, grade 1 and 2 tumors; for rats with severe initial tumors surviving to the second MRI: none of 3 in controls
Procedure: Cells (0.5×10^6 cells) from a highly malignant cell line of rat Glioblastoma multiforme (GBM) were injected by stereotactic methods into the parietal cortex of rats. Five (5) days later the brain of these rats were examined by MM and the tumors scored on a scale of 1-3 (1-small size tumor, 2-middle size tumor, 3-large size tumor) and for ventricular localization of the tumor. A catheter was placed in the brain tumor and attached to an osmotic pump (Alzet) releasing 1 μl/h for 7 days of one of the following three (3) treatments: saline (n=13), 6AA 2 μM (n=14) and 6AA 20 μM (n=14).
In order to account for the unequal distribution of initial tumor size, tumor and edema analyses were performed on rats with grade 1 and 2 tumors in the initial Mill (n=7, 6 and 5 for the saline, low and high treatment groups, respectively).
Survival was registered daily (FIG. 21).

[8] = in vivo; settings: ip, 2 micromolar, in 100 ul
Procedure: The concentrations of the peptide conjugates in the plasma of animals treated therewith was evaluated by a unique method that was based on the ability of the peptide conjugates to inhibit thrombin activity. […] The essay initiated by obtaining blood samples from animals which received the peptide conjugates (100 microliter containing 2 micromolar, i.p.). The blood samples, after being maintained in citrate buffered sample tubes, were subjected to centrifugation for plasma separation. Samples were then filtered through a membrane with a 10 kD molecular weight cutoff which excluded all blood coagulation factors (by addition of calcium to neutralize the anticoagulation effect of the citrate buffer). Coagulation factor-free plasma samples were then applied to the thrombin activity assay.
The resulting thrombin activities in each plasma sample either diluted (×10) or as is were given in arbitrary units (FIGS. 18-18D, diagonal shading and dotted bars, respectively). However, the actual concentration were deduced by comparing the activities to calibrated activities generated with known concentrations of the conjugate peptides. The calibration data included the following thrombin activities: activity in a sample of thrombin in the absence of plasma and conjugates (black bars, FIGS. 18A-18D); and activity in four samples of thrombin and known concentrations of the peptide conjugates (10 nM, 100 nM, 1 micromolar and 10 micromolar; bars 2nd to 5th from right in FIGS. 18A-18D).

[9] = tested on: EAN rats (experimental autoimmune neuritis); assay: Electrophysiological tests in EAN rats treated with thrombin inhibitors; assay type: in vivo, rat
Procedure: (§1) Electrophysiological tests of the sciatic nerves were performed on day 32 PI (post-immunization/induction) in EAN model (FIGS. 3A-C) and 8 weeks after STZ induction (FIG. 4A-C). Rats were anesthetized with Phenobarbital (IP, 24 mg/kg). Two pairs of monopolar needle electrodes were used to stimulate the tail nerves. Stimulating cathodes were inserted to a depth of 4-5 mm at the base of the tail and 4 cm distally. An anode at each location was inserted into the skin (4-5 mm depth) 1 cm proximal to the cathode. A ground electrode was placed between the distal stimulating electrode and the active recording electrode. Electromyography (EMG) recordings of responses of the tail muscles to proximal and distal stimuli, made by a pair of ring electrodes coated with electrode jelly and placed 1 cm distally to the distal stimulating electrode, were collected. The tail skin was wiped with alcohol prior to placing the electrodes. […] Both proximal and distal latencies were measured using time intervals from the stimulus artifact to the first deflection from baseline. To calculate the motor nerve conduction velocity (MNCV), the distance between stimulating cathodes was divided by the latency difference. Amplitudes of the compound muscle action potential (CMAP) from both proximal and distal stimulations were measured from the negative to the positive peaks. The reduction of the proximal CMAP compared with that of the distal CMAP was calculated by the equation: [(distal CMAP-proximal CMAP)/distalCMAP×100] and was defined as the R ratio. Temperature differences were minimized by conducting the study as soon as the anesthesia had taken effect and by warming the tail with a heating lamp.
(§2) FIGS. 3 and 4 each include 3 graphs summarizing the results from electrophysiological tests of treated rats, as follows: distal latency (3A, 4A) referring to the time, in milliseconds, between distal stimulation to recording; conduction velocity (3B, 4B) referring to the distance over time, in meters/seconds; and amplitude (3C, 4C) referring to the size of the response as measured in millivolts.

[10] = tested on: STZ-induced diabetic rats; assay: Electrophysiological tests in STZ-induced diabetic rats treated with thrombin inhibitors; assay type: in vivo, rat
Procedure: as §1, §2

[11] = tested on: CNS-1 glioma cells
Procedure: The thrombin-like activity of CNS-1 cells was initially measured in control cells and in cells treated with (i) the short peptide conjugate (tosyl-DPR-CK, corresponding to a conjugate that includes the peptide termed 3AA) or (ii) the long conjugate (tosyl-NATLDPR-CK, corresponding to a conjugate that includes the peptide termed 7AA (SEQ ID No. 4)) at high ([…]) and low (100 nM) concentrations (FIG. 16).

Row | Compound | inhibition of cell proliferation ([1]; 48 hours, 10 μM, p<0.05) | PT ([2]; 10 nM) | PT ([2]; 1 μM) | Potency score in PT test ([2]; 100 μM) | PT ([2]; 100 μM) | aPTT ([3]; 10 nM) | aPTT ([3]; 1 μM) | Potency score in aPTT test ([3]; 100 μM) | aPTT ([3]; 100 μM) | TT ([4]; 10 nM) | Potency score in TT test ([4]; 1 μM) | TT ([4]; 1 μM) | TT ([4]; 100 μM) | Potency score in Factor Xa activity test [5] | Fxa [5] | aPC ([6]; 1 μM) | Potency score in Protein C activity test ([6]; 100 μM) | aPC ([6]; 100 μM) | level at time molar [8] | also measured
1 | Cc1ccc(S(=O)(=O)N[C@@H](C)C(=O)N[C@H](C(=O)N[C@@H](CC(C)C)C(=O)N[C@@H](CC(=O)O)C(=O)N2CCC[C@H]2C(=O)N[C@@H](CCCNC(=N)N)C(=O)CCl)[C@@H](C)O)cc1 [6AA, tosyl-ATLDPR-CK] (Tos-ATLDPR-CH2Cl) | Significant inhibition | 11.5 s | 11.4 s | 3 | 16.5 s | 30 s | 30.6 s | 3 | 67.6 s | 13.9 s | 3 | 18.5 s | > 80 s | 3 | 0.36 | 108 | 2 | 11 | < 10 nM | proliferation compared to controls ([1]; 72 hours, all tested concentrations, p<0.05): significantly lower proliferation; change in edema surrounding the tumor ([7]; 2 μM): reduction in the edema; change in tumor size ([7]; 2 μM): A similar trend was observed; rats with severe initial tumors surviving to the second MRI ([7]; 2 μM): 1 out of 3; change in edema surrounding the tumor ([7]; 20 μM): reduction in the edema; change in tumor size ([7]; 20 μM, p=0.030): reduced tumor size to half of the original size; survival ([7]; 20 μM, registered daily): clear trend to increased survival; rats with severe initial tumors surviving to the second MRI ([7]; 20 μM): all 3
2 | N alpha-tosyl-L-lysine chloromethyl ketone [TLCK] | – | – | – | – | – | – | – | – | – | – | – | – | – | – | – | – | – | – | – | conduction velocity ([9]; daily treatment for 2 weeks, TLCK 4.4 mg/kg, NAPAP 120 μM/kg, untreated EAN 23.6±1.2): 40.55±6.7 m/sec; proximal amplitude ([9]; untreated EAN 0.76±0.33, non-significant): 1.36±0.49 millivolts; latency ([9]; untreated EAN 1.43±0.023, control 0.54±0.03): 1.28 ± 0.18 ms; conduction velocity ([10]; STZ rats, daily treatment for 2 weeks, TLCK 4.4 mg/kg, NAPAP 120 μM/kg, untreated STZ 28.5±2.8): 41.95±3.9 m/sec; proximal amplitude ([10]; STZ rats, untreated STZ 0.48±0.13, insignificant): 1.81±0.8 millivolts; latency ([10]; STZ rats, untreated STZ 1.93±0.139, control 1.29±0.057): 1.44 ± 0.04 ms; internal bleeding ([10]; animals treated with thrombin inhibitors): caused severe internal bleeding; concentration at which glioma-cell proliferation decreased ([1]; 48 hours): higher than 1 μM; proliferation-inhibition ([1]; 48 hours, 1 μM to 125 nM): No significant proliferation-inhibition; proliferation / cell death ([1]; 48 hours, 6.7 mM and 14 mM): caused cell death; proliferation-inhibition ([1]; 48 hours, 8-33 μM): significant proliferation-inhibition; proliferation, administered alone ([1]; XTT, 1 μM): did not inhibit proliferation; proliferation-inhibition, combined treatment with the PAR-1 antagonist ([1]; compared with PAR-1 antagonist (1 μM) alone): significantly increased said inhibitory effect
3 | Cc1ccc(S(=O)(=O)N[C@@H](CC(C)C)C(=O)N[C@@H](CC(=O)O)C(=O)N2CCC[C@H]2C(=O)N[C@@H](CCCNC(=N)N)C(=O)CCl)cc1 [4AA, tosyl-LDPR-CK] (Tos-LDPR-CH2Cl) | – | 11.5 s | 11.4 s | 5 | 12.7 s | 30.8 s | 30.9 s | 5 | 42.6 s | 13.5 s | 5 | 14.6 s | > 80 s | – | – | – | – | – | – | –
4 | Cc1ccc(S(=O)(=O)N[C@@H](CC(N)=O)C(=O)N[C@@H](C)C(=O)N[C@H](C(=O)N[C@@H](CC(C)C)C(=O)N[C@@H](CC(=O)O)C(=O)N2CCC[C@H]2C(=O)N[C@@H](CCCNC(=N)N)C(=O)CCl)[C@@H](C)O)cc1 [7AA, tosyl-NATLDPR-CK] (Tos-NATLDPR-CH2Cl) | Significant inhibition | 11.5 s | 11.2 s | 2 | 17.4 s | 29.9 s | 30.7 s | 2 | 85.2 s | 13.5 s | 2 | 24.1 s | > 80 s | 2 | 0.43 | 110 | 4 | 25 | ~10 nM | IC50 [11]: 0.01 nM; inhibition of cell proliferation ([1]; XTT, 48 hours, 10 nM): significant inhibition; inhibition of cell proliferation, in combination with PAR-1 antagonist ([1]; XTT, PAR-1 antagonist 1 μM, compared to untreated cells and to PAR-1 antagonist alone): greater inhibition on cell proliferation; inhibition of cell proliferation, applied alone ([1]; XTT, compared to untreated cells and to PAR-1 antagonist alone): greater inhibition on cell proliferation
